Reference: US10829452B2, “Histone methyltransferase inhibitors” (GLOBAL BLOOD THERAPEUTICS, INC., priority 2016, dated 2020)
Where a name gives a salt, the structure may show the parent alone.

These molecules were tested against T1, G9a (Homo sapiens, UniProt Q96KQ7) (assay: G9a AlphaLISA enzymatic activity assay). Conditions: 0.15 nM G9a, 15 uM S-adenosyl-methionine, 100 nM biotinylated histone 3 peptide (1-21), 1 hour at room temperature; read-out: G9a in (uM) (IC50, concentration that produced 50% inhibition).
T1 sequence (Q96KQ7 1-1210): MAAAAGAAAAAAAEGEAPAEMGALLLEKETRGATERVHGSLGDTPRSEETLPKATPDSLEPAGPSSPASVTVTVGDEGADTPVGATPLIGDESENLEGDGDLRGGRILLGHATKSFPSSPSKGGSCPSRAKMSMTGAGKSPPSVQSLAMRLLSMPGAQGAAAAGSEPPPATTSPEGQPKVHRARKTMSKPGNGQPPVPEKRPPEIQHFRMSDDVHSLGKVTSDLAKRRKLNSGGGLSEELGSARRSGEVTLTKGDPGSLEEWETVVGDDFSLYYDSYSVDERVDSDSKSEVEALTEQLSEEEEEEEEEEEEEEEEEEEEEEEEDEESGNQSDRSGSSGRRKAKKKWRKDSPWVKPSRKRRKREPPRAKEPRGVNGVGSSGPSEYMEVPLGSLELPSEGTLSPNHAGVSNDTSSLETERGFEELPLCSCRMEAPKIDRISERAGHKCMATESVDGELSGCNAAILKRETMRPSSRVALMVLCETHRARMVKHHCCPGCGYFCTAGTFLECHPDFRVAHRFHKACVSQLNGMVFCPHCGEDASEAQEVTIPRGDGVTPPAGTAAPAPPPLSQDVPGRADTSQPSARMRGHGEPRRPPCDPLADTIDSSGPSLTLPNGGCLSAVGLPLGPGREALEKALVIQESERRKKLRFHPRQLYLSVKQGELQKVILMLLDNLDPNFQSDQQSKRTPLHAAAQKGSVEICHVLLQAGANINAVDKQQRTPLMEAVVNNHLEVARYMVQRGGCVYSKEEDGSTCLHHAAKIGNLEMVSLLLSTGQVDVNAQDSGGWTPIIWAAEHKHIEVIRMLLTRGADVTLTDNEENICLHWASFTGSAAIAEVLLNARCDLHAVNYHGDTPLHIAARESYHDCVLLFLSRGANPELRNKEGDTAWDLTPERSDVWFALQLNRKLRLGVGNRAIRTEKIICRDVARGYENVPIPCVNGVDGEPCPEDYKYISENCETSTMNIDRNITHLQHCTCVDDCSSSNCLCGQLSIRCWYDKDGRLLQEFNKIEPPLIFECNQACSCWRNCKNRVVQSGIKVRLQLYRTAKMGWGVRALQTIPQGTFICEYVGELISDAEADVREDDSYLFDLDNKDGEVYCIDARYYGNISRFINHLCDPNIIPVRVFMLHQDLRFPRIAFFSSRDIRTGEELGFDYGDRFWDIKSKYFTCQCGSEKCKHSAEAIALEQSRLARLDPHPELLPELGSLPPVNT
Format: biochemical
Description: The G9a AlphaLISA assay was used to detect the methyl modifications of a biotinylated histone H3 peptide by the compounds. These modifications are done by the histone methyl transferase activity of the G9a enzyme. The assay consists of reading a chemiluminescent signal at 615 nm; this signal is generated by a laser excitation at 680 nm that transfers a reactive singlet oxygen between the donor beads and acceptor beads. Donor beads are streptavidin conjugated and bind to the biotin on the peptide. Acceptor beads are conjugated with an antibody that recognizes the specific G9a methyl mark on the peptide. If there is a methyl mark on the peptide, the acceptor beads will bind to the peptide. Upon binding, the acceptor beads will be in close proximity (<200 nm) of the donor beads and when the donor beads are excited, the transfer of the oxygen can occur and a strong signal will be generated. If there is no methyl mark, the interaction between beads will not occur and signal will be at background levels.
For the assay, the following buffer was used to set up reactions: 50 mM Tris-HCl pH9, 50 mM NaCl, 0.01% Tween-20 and 1 mM DTT (added fresh prior to starting the reactions). The assay is set up by adding a final concentration of 0.15 nM G9a, 15 uM S-adenosyl-methionine and, 100 nM biotinylated histone 3 peptide (1-21). The reaction is incubated at room temperature for 1 hour, and subsequently quenched by the addition of the acceptor beads (anti-H3k9me2 AlphaLISA acceptor beads, PerkinElmer # AL117) at a final concentration of 20 ug/mL. The acceptor beads are incubated for 1 hour. After 1 hour, the donor beads are added at a final concentration of 20 ug/mL (Alpha Streptavidin donor beads, PerkinElmer #6760002). Donor beads are incubated for 0.5 hours. Both donor and acceptor beads are resuspended in AlphaLISA 5X Epigenetics Buffer 1 Kit (PerkinElmer # AL008) prior to addition to the reaction. All manipulations and incubations with the donor and acceptor beads are done in subdued light. Signal is detected in an EnVision plate reader in Alpha mode (see ACS Med Chem Lett. 2014 Jan. 2; 5(2):205-9. doi: 10.1021/m1400496h. eCollection 2014. Discovery and development of potent and selective inhibitors of histone methyltransferase g9a.)
Percent inhibition was calculated for each compound dilution and the concentration that produced 50% inhibition was calculated. This value is presented as the IC50.

SMILES | IC50
COc1cc2c3c(c(NC(C)C)nc2cc1OCCCN1CCCC1)COCC3 [Example 50, 9-methoxy-N-(propan-2-yl)-8-[3-(pyrrolidin-1-yl)propoxy]-1H,2H,4H-pyrano[3,4-c]quinolin-5-amine formate] | 0.24 µM
COc1cc2c3c(c(-c4coc(C)c4)nc2cc1OCCCN1CCCC1)CCC3 [Example 90, 1-(3-{[8-methoxy-4-(5-methylfuran-3-yl)-1H,2H,3H-cyclopenta[c]quinolin-7-yl]oxy}propyl)pyrrolidine formate] | 0.6 µM
COc1cc2c3c(c(N[C@H]4C[C@H](O)C4)nc2cc1OCCCN1CCCC1)CCCC3 [Example 64, 3-({2-methoxy-3-[3-(pyrrolidin-1-yl)propoxy]-7,8,9,10-tetrahydrophenanthridin-6-yl}amino)cyclobutan-1-ol formate] | 0.5 µM
COc1cc2c3c(c(N[C@@H]4CCOC4)nc2cc1OCCCN1CCCC1)CCC3 [Example 17, 8-methoxy-N-[(3R)-oxolan-3-yl]-7-[3-(pyrrolidin-1-yl)propoxy]-1H,2H,3H-cyclopenta[c]quinolin-4-amine formate] | 0.21 µM
COc1cc2c3c(c(NC(C)C)nc2cc1OCCCN1CCCCC1)CCC3 [Example 85, 8-methoxy-7-[3-(piperidin-1-yl)propoxy]-N-(propan-2-yl)-1H,2H,3H-cyclopenta[c]quinolin-4-amine formate] | 0.66 µM
COc1ccc(CNc2nc3cc(OCCCN4CCCC4)c(OC)cc3c3c2CC(C)(C)C3)c(OC)c1 [Example 117, N-[(2,4-dimethoxyphenyl)methyl]-8-methoxy-2,2-dimethyl-7-[3-(pyrrolidin-1-yl)propoxy]-1H,2H,3H-cyclopenta[c]quinolin-4-amine formate] | 0.36 µM
COc1cc2c3c(cnc2cc1OCCCN1CCCC1)CCC(C)(C)N3 [Example 75, 1-[3-({9-methoxy-2,2-dimethyl-1H,2H,3H,4H-benzo[h]1,6-naphthyridin-8-yl}oxy)propyl]pyrrolidine formate] | 0.014 µM
COc1cc2c3c(c(N[C@@H](C)C4CC4)nc2cc1OCCCN1CCCC1)CCC3 [Example 88, N-[(1S)-1-cyclopropylethyl]-8-methoxy-7-[3-(pyrrolidin-1-yl)propoxy]-1H,2H,3H-cyclopenta[c]quinolin-4-amine formate] | 0.003 µM
COc1cc2c(cc1OCCCN1CCCC1)nc(O)n1nccc21 [Example 56, 9-methoxy-8-[3-(pyrrolidin-1-yl)propoxy]pyrazolo[1,5-c]quinazolin-5-ol formate] | 0.46 µM
COc1cc2c3c(c(C4CC4)nc2cc1OCCCN1CCCC1)CCC(C)(C)N3 [Example 76, 1-[3-({5-cyclopropyl-9-methoxy-2,2-dimethyl-1H,2H,3H,4H-benzo[h]1,6-naphthyridin-8-yl}oxy)propyl]pyrrolidine formate] | 0.013 µM
CCNc1nc2cc(OCCCN3CCCC3)c(OC)cc2c2c1COC2 [Example 60, N-ethyl-8-methoxy-7-[3-(pyrrolidin-1-yl)propoxy]-1H,3H-furo[3,4-c]quinolin-4-amine formate] | 0.21 µM
COc1cc2c3c(c(NC(C)C)nc2cc1OCCCN(C)C)CCC3 [Example 92, 7-[3-(dimethylamino)propoxy]-8-methoxy-N-(propan-2-yl)-1H,2H,3H-cyclopenta[c]quinolin-4-amine formate] | 0.059 µM
CC(C)Nc1nc2cc(OCCCN3CCCC3)c(O)cc2c2c1CCC2 [Example 84, 4-[(propan-2-yl)amino]-7-[3-(pyrrolidin-1-yl)propoxy]-1H,2H,3H-cyclopenta[c]quinolin-8-ol trifluoroacetate] | 1.6 µM
COc1cc2c3c(c(NCCO)nc2cc1OCCCN1CCCC1)CCCC3 [Example 15, 2-({2-methoxy-3-[3-(pyrrolidin-1-yl)propoxy]-7,8,9,10-tetrahydrophenanthridin-6-yl}amino)ethan-1-ol formate] | 0.19 µM
COc1cc2c3c(c(C)nc2cc1OCCCN1CCCC1)CCC(C)(C)N3 [Example 78, 1-[3-({9-methoxy-2,2,5-trimethyl-1H,2H,3H,4H-benzo[h]1,6-naphthyridin-8-yl}oxy)propyl]pyrrolidine] | 0.003 µM
CNc1nc2cc(OCCCN3CCCC3)c(OC)cc2c2c1CCC(C)N2 (stereo not drawn) [Example 29, 9-methoxy-N,2-dimethyl-8-[3-(pyrrolidin-1-yl)propoxy]-1H,2H,3H,4H-benzo[h]1,6-naphthyridin-5-amine formate] | 0.009 µM
COc1cc2c3c(cnc2cc1OCCCN1CCCC1)CC(C)(C)N3 [Example 35, 1-[3-({8-methoxy-2,2-dimethyl-1H,2H,3H-pyrrolo[3,2-c]quinolin-7-yl}oxy)propyl]pyrrolidine formate] | 0.012 µM
COc1cc2c3c(c(NC(C)C)nc2cc1OCC1CCN(C)C1)CCC3 (stereo not drawn) [Example 11, 8-methoxy-7-[(1-methylpyrrolidin-3-yl)methoxy]-N-(propan-2-yl)-1H,2H,3H-cyclopenta[c]quinolin-4-amine trifluoroacetate] | 0.27 µM
COc1cc2c3c(c(N(C)C4CCCC4)nc2cc1OCCCN1CCCC1)CCC3 [Example 73, N-cyclopentyl-8-methoxy-N-methyl-7-[3-(pyrrolidin-1-yl)propoxy]-1H,2H,3H-cyclopenta[c]quinolin-4-amine trifluoroacetate] | 1.9 µM
Cl.Cl.[2H]C(C)(C)Nc1nc2cc(OCCCN3CCCC3)c(OC)cc2c2c1CCC2 [Example 102, 8-methoxy-N-[(2-^2H)propan-2-yl]-7-[3-(pyrrolidin-1-yl)propoxy]-1H,2H,3H-cyclopenta[c]quinolin-4-amine hydrochloride] | 0.013 µM
CNc1nc2cc(OCCCN3CCCC3)c(OC)cc2c2c1CCCC2 [Example 2, 2-methoxy-N-methyl-3-[3-(pyrrolidin-1-yl)propoxy]-7,8,9,10-tetrahydrophenanthridin-6-amine formate] | 0.029 µM
COc1cc2c3c(c(NC4CC4)nc2cc1OCCCN1CCCC1)CCCC3 [Example 19, N-cyclopropyl-2-methoxy-3-[3-(pyrrolidin-1-yl)propoxy]-7,8,9,10-tetrahydrophenanthridin-6-amine formate] | 0.057 µM
CCNc1nc2cc(OCCCN3CCCC3)c(OC)cc2c2c1CCC2 [Example 106, N-ethyl-8-methoxy-7-[3-(pyrrolidin-1-yl)propoxy]-1H,2H,3H-cyclopenta[c]quinolin-4-amine trifluoroacetate] | 0.013 µM
COc1cc2c3c(c(C(C)C)nc2cc1OCCCN1CCCC1)CCC(C)(C)N3 [Example 77, 1-(3-{[9-methoxy-2,2-dimethyl-5-(propan-2-yl)-1H,2H,3H,4H-benzo[h]1,6-naphthyridin-8-yl]oxy}propyl)pyrrolidine formate] | 0.007 µM
